Experimental findings from the NIST ThermoML archive (doi:10.1016/j.jct.2013.09.007) are described below.

± gives the expanded uncertainty stated by the source.

The nature of this data set: activity coefficient (dimensionless); of the first substance listed, at infinite dilution; xn = mol fraction of the nth substance listed. The settings on record: 101 kPa, Liquid, Chromatography, x1 = 0.

For `Cc1ccccc1C` [1,2-dimethylbenzene] + CCCC[n+]1cccc(C)c1.N#C[N-]C#N, the activity coefficient (328.15 K) was 2.47 ± 0.17; the activity coefficient (338.15 K) stood at 2.51 ± 0.17; the activity coefficient (348.15 K) was determined as 2.58 ± 0.18; the activity coefficient (358.15 K) amounted to 2.64 ± 0.18; the activity coefficient (368.15 K) was found to be 2.71 ± 0.18.

Turning to `Cc1cccc(C)c1` [1,3-dimethylbenzene] + CCCC[n+]1cccc(C)c1.N#C[N-]C#N, the activity coefficient runs as follows: (328.15 K) 3.01 ± 0.2; (338.15 K) 3.06 ± 0.21; (348.15 K) 3.14 ± 0.21; (358.15 K) 3.2 ± 0.22; (368.15 K) 3.28 ± 0.22.

Take `Cc1ccc(C)cc1` [1,4-dimethylbenzene] + CCCC[n+]1cccc(C)c1.N#C[N-]C#N: the activity coefficient worked out at 2.86 ± 0.19 (328.15 K); 2.92 ± 0.2 (338.15 K); 3.02 ± 0.21 (348.15 K); 3.08 ± 0.21 (358.15 K); 3.17 ± 0.22 (368.15 K).

On to `C1COCCO1` [1,4-dioxane] + CCCC[n+]1cccc(C)c1.N#C[N-]C#N, for which the activity coefficient reads like this: (338.15 K) 1.01 ± 0.06; (348.15 K) 1.05 ± 0.07; (358.15 K) 1.08 ± 0.07; (368.15 K) 1.11 ± 0.07.

On to `C=CCCCCCCCC` [1-decene] + CCCC[n+]1cccc(C)c1.N#C[N-]C#N, for which the activity coefficient (308.15 K) was 109 ± 7; the activity coefficient (318.15 K) was 101 ± 7; the activity coefficient (328.15 K) came out at 93.8 ± 6.4; the activity coefficient (338.15 K) was 88.4 ± 6.1; the activity coefficient (348.15 K) is 83.2 ± 5.7; the activity coefficient (358.15 K) amounted to 78.1 ± 5.4. The activity coefficient (368.15 K) stood at 73.9 ± 5.1.

For the compound `C=CCCCCC` [1-heptene] + CCCC[n+]1cccc(C)c1.N#C[N-]C#N, the activity coefficient (308.15 K) is 33.1 ± 2.3; the activity coefficient (318.15 K) came to 31.2 ± 2.1; the activity coefficient (328.15 K) came to 29.7 ± 2; the activity coefficient (338.15 K) was 28.3 ± 1.9; the activity coefficient (348.15 K) turned out to be 27 ± 1.8; the activity coefficient (358.15 K) came to 25.9 ± 1.8. Moreover, where the note is “368.15 K”, the activity coefficient was 24.8 ± 1.7.

On to `C#CCCCCC` [1-heptyne] + CCCC[n+]1cccc(C)c1.N#C[N-]C#N, for which the activity coefficient reads like this: (308.15 K) 6.16 ± 0.42; (318.15 K) 6.27 ± 0.43; (328.15 K) 6.38 ± 0.43; (338.15 K) 6.48 ± 0.44; (348.15 K) 6.58 ± 0.45; (358.15 K) 6.67 ± 0.45. Besides, the activity coefficient (368.15 K) was determined as 6.78 ± 0.46.

As to `C#CCCCC` [1-hexyne] + CCCC[n+]1cccc(C)c1.N#C[N-]C#N, the activity coefficient (308.15 K) came to 4.13 ± 0.28; the activity coefficient (318.15 K) turned out to be 4.25 ± 0.29; the activity coefficient (328.15 K) came out at 4.35 ± 0.3; the activity coefficient (338.15 K) was 4.45 ± 0.3; the activity coefficient (348.15 K) was 4.55 ± 0.31; the activity coefficient (358.15 K) was determined as 4.62 ± 0.31. The activity coefficient (368.15 K) stood at 4.72 ± 0.32.

For the compound `CCC[N+](=O)[O-]` [1-nitropropane] + CCCC[n+]1cccc(C)c1.N#C[N-]C#N, the activity coefficient (338.15 K) was 1.13 ± 0.07, the activity coefficient (348.15 K) came out at 1.14 ± 0.07, the activity coefficient (358.15 K) turned out to be 1.15 ± 0.07 and the activity coefficient (368.15 K) came out at 1.15 ± 0.07.

For `C#CCCCCCC` [1-octyne] + CCCC[n+]1cccc(C)c1.N#C[N-]C#N, the activity coefficient is, setting by setting: (308.15 K) 9.22 ± 0.63; (318.15 K) 9.32 ± 0.64; (328.15 K) 9.42 ± 0.64; (338.15 K) 9.52 ± 0.65; (348.15 K) 9.6 ± 0.65; (358.15 K) 9.68 ± 0.66. In addition, for the setting “368.15 K”, the activity coefficient was 9.75 ± 0.67.

Turning to `C=CCCC` [1-pentene] + CCCC[n+]1cccc(C)c1.N#C[N-]C#N, the activity coefficient by setting is: (308.15 K) 15.3 ± 1; (318.15 K) 14.7 ± 1; (328.15 K) 14.1 ± 1; (338.15 K) 13.7 ± 0.9; (348.15 K) 13.1 ± 0.9; (358.15 K) 12.6 ± 0.9. Moreover, the activity coefficient (368.15 K) came to 12.2 ± 0.8.

For the compound `C#CCCC` [1-pentyne] + CCCC[n+]1cccc(C)c1.N#C[N-]C#N, the activity coefficient turned out to be 2.9 ± 0.2 (308.15 K); 2.97 ± 0.2 (318.15 K); 3.05 ± 0.21 (328.15 K); 3.14 ± 0.21 (338.15 K); 3.21 ± 0.22 (348.15 K); 3.28 ± 0.22 (358.15 K). Besides, the activity coefficient (368.15 K) worked out at 3.35 ± 0.23.

For `CC(C)CC(C)(C)C` [2,2,4-trimethylpentane] + CCCC[n+]1cccc(C)c1.N#C[N-]C#N, the activity coefficient runs as follows: (308.15 K) 104 ± 7; (318.15 K) 93.3 ± 6.4; (328.15 K) 85.8 ± 5.9; (338.15 K) 78.3 ± 5.4; (348.15 K) 72.6 ± 5; (358.15 K) 67 ± 4.6. Besides, the activity coefficient (368.15 K) is 61.7 ± 4.2.

Regarding `CCC(C)(C)C` [2,2-dimethylbutane] + CCCC[n+]1cccc(C)c1.N#C[N-]C#N, the activity coefficient turned out to be 57.3 ± 3.9 (308.15 K); 52 ± 3.6 (318.15 K); 47.4 ± 3.2 (328.15 K); 42.9 ± 2.9 (338.15 K); 39.4 ± 2.7 (348.15 K); 36.4 ± 2.5 (358.15 K). Besides, the activity coefficient (368.15 K) was 33.6 ± 2.3.

Consider `CCOC(C)(C)C` [2-ethoxy-2-methylpropane] + CCCC[n+]1cccc(C)c1.N#C[N-]C#N, for which the activity coefficient was found to be 18 ± 1.2 (308.15 K); 17.5 ± 1.2 (318.15 K); 17 ± 1.2 (328.15 K); 16.7 ± 1.1 (338.15 K); 16.3 ± 1.1 (348.15 K); 15.9 ± 1.1 (358.15 K). In addition, where the note is “368.15 K”, the activity coefficient turned out to be 15.6 ± 1.1.

Take `CCCCC(C)=O` [2-hexanone] + CCCC[n+]1cccc(C)c1.N#C[N-]C#N: the activity coefficient (328.15 K) was determined as 2.44 ± 0.17; the activity coefficient (338.15 K) is 2.48 ± 0.17; the activity coefficient (348.15 K) is 2.54 ± 0.17; the activity coefficient (358.15 K) worked out at 2.59 ± 0.18; the activity coefficient (368.15 K) is 2.63 ± 0.18.

`CCC(C)(C)OC` [2-methoxy-2-methylbutane] + CCCC[n+]1cccc(C)c1.N#C[N-]C#N: the activity coefficient (308.15 K) was determined as 9.8 ± 0.67; the activity coefficient (318.15 K) came out at 9.71 ± 0.66; the activity coefficient (328.15 K) came out at 9.59 ± 0.65; the activity coefficient (338.15 K) is 9.51 ± 0.65; the activity coefficient (348.15 K) was found to be 9.44 ± 0.64; the activity coefficient (358.15 K) amounted to 9.35 ± 0.64. In addition, where the note is “368.15 K”, the activity coefficient came to 9.27 ± 0.63.

On to `COC(C)(C)C` [2-methoxy-2-methylpropane] + CCCC[n+]1cccc(C)c1.N#C[N-]C#N, for which the activity coefficient was found to be 6.76 ± 0.46 (308.15 K); 6.77 ± 0.46 (318.15 K); 6.78 ± 0.46 (328.15 K); 6.78 ± 0.46 (338.15 K); 6.79 ± 0.46 (348.15 K); 6.8 ± 0.46 (358.15 K). Further, the activity coefficient (368.15 K) came out at 6.8 ± 0.46.

In the case of `CCCC(=O)CC` [3-hexanone] + CCCC[n+]1cccc(C)c1.N#C[N-]C#N, the activity coefficient by setting is: (338.15 K) 2.77 ± 0.19; (348.15 K) 2.82 ± 0.19; (358.15 K) 2.87 ± 0.2; (368.15 K) 2.89 ± 0.2.

On to `CCC(C)CC` [3-methylpentane] + CCCC[n+]1cccc(C)c1.N#C[N-]C#N, for which the activity coefficient (308.15 K) was determined as 50.9 ± 3.5; the activity coefficient (318.15 K) was 47 ± 3.2; the activity coefficient (328.15 K) amounted to 43.1 ± 3; the activity coefficient (338.15 K) amounted to 39.8 ± 2.7; the activity coefficient (348.15 K) was found to be 36.9 ± 2.5; the activity coefficient (358.15 K) was 34.7 ± 2.4. Further, the activity coefficient (368.15 K) is 32.4 ± 2.2.
